Consider three compounds from PubChem BioAssay (NCI).

Common to all, as to experiment: NCI anticancer screen, dose series, 48 h
The subject of test [1] is DU-145 prostate.
Test [2] has as its system HCC-2998 colon.
Test [3] has as its system HL-60(TB) leukemia.
Test [4] concerns HOP-62 NSCLC.
For test [5], the system named is LOX IMVI melanoma.
The subject of test [6] is MDA-MB-435.
The subject of test [7] is MOLT-4 leukemia.
For test [8], the system named is NCI-H460 lung.
In test [9] the test system is RPMI-8226 leukemia.
The test system of test [10] is U251 CNS.

Structures are written as SMILES. Values joined by “and” are separate entries in the source; they are usually repeats but may differ in a detail not shown here. Identical values can stand only once.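 Interpolation was linear, between the two tested concentrations surrounding the appropriate level; five concentrations were tested over 48 hours in 96-well plates. GI50 = concentration required for 50% inhibition of growth. TGI: concentration producing complete growth inhibition.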

As for `O=C1NC(N/N=C\C(O)C(O)C(O)CO)=N/C1=C/c1ccccc1` (centres undefined), the TGI in [1], in test [2], in test [3], in test [4], in [5] and in [6] was greater than 100 µM in each case. Further, the TGI in [7] is > 100 µM and 54.3 µM; in test [8], greater than 100 µM; in test [9], greater than 100 µM; in [10], greater than 100 µM. In addition, the GI50 is > 100 µM and 41.2 µM in test [3]; > 100 µM and 49.6 µM in [6]; > 100 µM and 43.4 µM in test [8]; > 100 µM and 33.7 µM in [9].

For `O=S(=O)(Oc1ccc2oc3ccccc3c2c1-c1c(OS(=O)(=O)C(F)(F)F)ccc2oc3ccccc3c12)C(F)(F)F`, the TGI in test [1], in test [2], in [3], in test [4], in test [5] and in test [6] was greater than 100 µM throughout. The TGI in test [7], in test [8], in test [9] and in [10] was greater than 100 µM throughout.

`CCCCNC1CCC2(SCCS2)c2[nH]c3ccccc3c21` (centres undefined): the TGI in [1] was greater than 93.8 µM; in [2], 38.8 µM; in test [3], 8.05 µM; in [4], greater than 100 µM; in [5], 14.4 µM; in test [6], greater than 49.6 µM. Moreover, the TGI in test [7] is 33.5 µM; in [8], greater than 100 µM; in test [9], greater than 43.1 µM; in test [10] it was 97.3 µM.
